In patent publication US7652003B2, “Macrocyclic β-secretase inhibitors” (Schering-Plough Corporation, priority 2004, dated 2010):
Read-outs that look alike come from different tables or passages of the source.

Target: T1, sproBACE1 (soluble human BACE1) (Homo sapiens, UniProt P56817)
T1 construct: sBACE1, corresponding to amino acids 1-454; made in house; host or cells: Sf9 insect cells (baculovirus); purified from culture supernatant
Experiment: Peptide hydrolysis assay (HTRF, EuK-biotin labeled APPsw substrate)
Format: biochemical
Conditions: 7 nM sproBACE1, pH 5.0, 3 hr at 30° C.
Excerpt: A predicted soluble form of human BACE1 (sBACE1, corresponding to amino acids 1-454) was generated from the full length BACE1 cDNA (full length human BACE1 cDNA in pcDNA4/mycHisA construct; University of Toronto) by PCR using the advantage-GC cDNA PCR kit (Clontech, Palo Alto, Calif.). A HindIII/Pmel fragment from pcDNA4-sBACE1 myc/His was blunt ended using Klenow and subcloned into the Stu I site of pFASTBACI(A) (Invitrogen). A sBACE1 mycHis recombinant bacmid was generated by transposition in DH10Bac cells(GIBCO/BRL). Subsequently, the sBACE1 mycHis bacmid construct was transfected into sf9 cells using CellFectin (Invitrogen, San Diego, Calif.) in order to generate recombinant baculovirus. Sf9 cells were grown in SF 900-II medium (Invitrogen) supplemented with 3% heat inactivated FBS and 0.5× penicillin/streptomycin solution (Invitrogen). Five milliliters of high titer plaque purified sBACEmyc/His virus was used to infect 1 L of logarithmically growing sf9 cells for 72 hours. Intact cells were pelleted by centrifugation at 3000×g for 15 minutes. The supernatant, containing secreted sBACE1, was collected and diluted 50% v/v with 100 mM HEPES, pH 8.0. The diluted medium was loaded onto a Q-sepharose column. The Q-sepharose column was washed with Buffer A (20 mM HEPES, pH 8.0, 50 mM NaCl).
Proteins, were eluted from the Q-sepharose column with Buffer B (20 mM HEPES, pH 8.0, 500 mM NaCl). The protein peaks from the Q-sepharose column were pooled and loaded onto a Ni-NTA agarose column. The Ni-NTA column was then washed with Buffer C (20 mM HEPES, pH 8.0, 500 mM NaCl). Bound proteins were then eluted with Buffer D (Buffer C+250 mM imidazole). Peak protein fractions as determined by the Bradford Assay (Biorad, Calif.) were concentrated using a Centricon 30 concentrator (Millipore). sBACE1 purity was estimated to be ˜90% as assessed by SDS-PAGE and Commassie Blue staining.
The inhibitor, 25 nM EuK-biotin labeled APPsw substrate (EuK-KTEEISEVNLDAEFRHDKC-biotin; CIS-Bio International, France), 5 μM unlabeled APPsw peptide (KTEEISEVNLDAEFRHDK; American Peptide Company, Sunnyvale, Calif.), 7 nM sproBACE1, 20 mM PIPES pH 5.0, 0.1% Brij-35 (protein grade, Calbiochem, San Diego, Calif.), and 10% glycerol were preincubated for 30 min at 30° C. […] HTRF measurements were made on a Packard Discovery® HTRF plate reader using 337 nm laser light to excite the sample followed by a 50 μs delay and simultaneous measurements of both 620 nm and 665 nm emissions for 400 μs.
IC50 determinations for inhibitors, (I), were determined by measuring the percent change of the relative fluorescence at 665 nm divided by the relative fluorescence at 620 nm, (665/620 ratio), in the presence of varying concentrations of I and a fixed concentration of enzyme and substrate. […]

[1] = read-out: Activity (IC50 classification)

T1 sequence (P56817 22-454): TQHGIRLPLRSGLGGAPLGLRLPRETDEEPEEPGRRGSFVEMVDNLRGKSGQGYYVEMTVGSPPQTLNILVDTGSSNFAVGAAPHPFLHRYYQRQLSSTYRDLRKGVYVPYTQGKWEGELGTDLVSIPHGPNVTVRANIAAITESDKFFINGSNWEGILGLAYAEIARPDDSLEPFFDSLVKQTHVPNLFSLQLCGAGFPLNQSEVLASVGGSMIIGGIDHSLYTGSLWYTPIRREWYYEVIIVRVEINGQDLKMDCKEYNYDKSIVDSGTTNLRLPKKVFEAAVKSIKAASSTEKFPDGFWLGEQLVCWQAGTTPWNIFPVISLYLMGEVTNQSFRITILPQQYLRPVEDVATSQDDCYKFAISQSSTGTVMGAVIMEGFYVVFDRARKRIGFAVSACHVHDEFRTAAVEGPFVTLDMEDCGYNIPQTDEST

Row | Structure (SMILES) | IC50 [1] [nM] | further results
1 | O=C1N[C@H]([C@H](O)[C@@H]2NCCN(Cc3ccccc3)C2=O)Cc2cc(F)cc(c2)OCCCCN2CC1CC2=O (stereo partly shown) [drawing 72] | 2 to 1000 | –
2 | CCCN1CCCCOc2cc(F)cc(c2)CC(C(O)C2NCCN(Cc3ccccc3)C2=O)NC(=O)c2cccc(c2)C1=O (stereo not shown) | – | Activity (IC50 classification): A or B
3 | O=C1N[C@H]([C@H](O)[C@@H]2NCCN(Cc3ccccc3)C2=O)Cc2cc(F)cc(c2)OCCCCN2CC1CC2=O (stereo partly shown) [drawing 69] | – | IC50 (read-out: IC50): 4 nM
4 | CCCN1CCCCOc2ccc(cc2)C[C@@H](C(O)C2NCCN(Cc3ccccc3)C2=O)NC(=O)c2cccc(c2)C1=O (stereo partly shown) | 1000 to 10000 | –
